# Reference: patent publication US20120244193A1, “PASSIVE SOLID TUMOR TARGETING ANTICANCER PRODRUG AND PREPARATION METHOD THEREOF” (priority 2009, published 2012)
# Where a name gives a salt, the structure may show the parent alone.
# Key:
# Test in all cases: Inhibition of growth activity of tumor cell lines in vitro by MTT method
# B16 = type: cell-based, mouse; details: B16, equivalent to 2 mg/ml doxorubicin, drug treatment 24 hours
# Method: (§1) The passive solid tumor-targeted anticancer prodrug used in the test was prepared in the test example 1 (equivalent to 2 mg/ml doxorubicin).
# (§2) Cell solution (with concentration of 50,000 cells/ml) growing in logarithmic growth phase cultured with RPMI 1640 culture medium was inoculated on a 96 well plate with 0.1 ml/well, and subject to corresponding drug treatment after incubation for 24 hours. After drug treatment for 24 hours, 0.02 ml 5 mg/ml 3-(4,5-dimethylthiazolyl-2)-2,5-diphenyltetrazolium bromide (MTT) was added for treatment for 4 hours, then culture solution was removed, 0.15 ml dimethylsulfoxide (DMSO) was added, and light absorption value was determined at 570 nm by a microplate reader.
# A549 = type: cell-based; details: Homo sapiens; A549, doxorubicin concentration 2 mg/ml, drug treatment 24 hours; read-out: Inhibition rate (%)
# Method: as §1, §2
# 2780-S = type: cell-based; details: equivalent to 2 mg/ml doxorubicin, drug treatment 24 hours
# Method: as §1, §2
# NCI-H446 = type: cell-based; details: Homo sapiens; NCI-H446, doxorubicin concentration 2 mg/ml, drug treatment 24 hours; read-out: Inhibition rate (%)
# Method: as §1, §2
# 2780-CP = type: cell-based; details: equivalent to 2 mg/ml doxorubicin, drug treatment 24 hours
# Method: as §1, §2
structure (smiles),measurement,setting,value
COc1cccc2c1C(=O)c1c(O)c3c(c(O)c1C2=O)C[C@@](O)(C(=O)CO)C[C@@H]3O[C@H]1C[C@H](N)[C@H](O)[C@H](C)O1 [doxorubicin hydrochloride],Inhibition rate (%),B16,85.9%
same,inhibition at 2000 µg/mL,A549,67.6%
same,Inhibition rate (%),2780-S,52.8%
same,inhibition at 2000 µg/mL,NCI-H446,63.3%
same,Inhibition rate (%),2780-CP,49.3%
